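Results reflect a 48-hour exposure of cells in 96-well plates to compound at five concentrations. TGI is the concentration that stops growth completely.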
Columns and labels:
Test in all cases: inhibition of tumour cell growth, NCI panel, 48 h
SNB-78 CNS = system: SNB-78 CNS
DMS 273 small cell lung = system: DMS 273 small cell lung
KM20L2 colon = system: KM20L2 colon
DMS 114 small cell lung = system: DMS 114 small cell lung
M19-MEL melanoma = system: M19-MEL melanoma
XF 498 CNS = system: XF 498 CNS
LXFL 529 NSCLC = system: LXFL 529 NSCLC
HOP-18 NSCLC = system: HOP-18 NSCLC
RXF-631 renal = system: RXF-631 renal

Row | SMILES | TGI (SNB-78 CNS) [µM] | TGI (DMS 273 small cell lung) [µM] | TGI (KM20L2 colon) [µM] | TGI (DMS 114 small cell lung) [µM] | TGI (M19-MEL melanoma) [µM] | TGI (XF 498 CNS) [µM] | TGI (LXFL 529 NSCLC) [µM] | TGI (HOP-18 NSCLC) [µM] | TGI (RXF-631 renal) [µM]
1 | O=C(c1nc2ccccc2[nH]c1=O)C(O)c1ccco1 (stereo not given) | > 100 | > 100 | > 100 | > 100 | > 100 | > 100 | > 100 |  | 
2 | C/C(CC(=O)Nc1cc(C)ccc1C)=N/N=C(N)N | > 100 | > 100 | > 100 | > 100 | > 100 | > 100 | > 100 |  | 
3 | CCOP12(OCC)NC(=O)OC1(C(F)(F)F)c1ccccc1O2 (stereo not given) | > 100 | > 100 |  | > 100 | > 100 |  | > 100 | > 100 | 
4 | N#Cc1cc([N+](=O)[O-])ccc1NC(=O)/C(=N\NC(=O)c1ccncc1)C(c1cnc2ccc([N+](=O)[O-])cc2n1)[N+](=O)[O-] (stereo not given) | 21.6 | 6.59 | 25.1 | 3.1 | 1.69 | 3.17 | 3.81 | 2.87 | 5.13
5 | O=C1CC2(CCC3=C(O2)c2ccccc2NC(=O)C3)C(=O)c2ccccc2N1 (stereo not given) | > 100 | > 100 | > 100 | > 100 | > 100 | > 100 | > 100 |  | 
6 | C=CCN1COc2c(cc3c4c(cccc24)C(=O)O3)C1 |  | > 100 | > 100 | 35 | 37.4 | 37.8 | 35.1 | > 100 | 
7 | O=C1NC(=O)C(C(=O)C(=O)Nc2ccc(Cl)cc2Cl)C(=O)N1 | > 100 |  | > 100 | > 100 | > 100 |  | > 100 |  | > 100
8 | O=c1c2ccccc2nc2n1-c1ccccc1SC2 | > 100 | > 100 | > 100 | > 100 | > 100 | 91.3 | > 100 |  | > 100
9 | Clc1ccc(CCn2cncn2)cc1 | > 100 | > 100 | > 100 | > 100 | > 100 |  | > 100 | > 100 | 
10 | N#CC1=C(c2ccccc2)C(=C2Nc3ccccc3N2)C2S/C(=C\c3ccccc3)C(=O)N2C1=N (stereo not given) | 6.86 | 4.9 | 6.56 | 4.64 | 7.97 | 5.57 | 10.8 |  | 
11 | O=C1C=CC2(C=C1)CCNC1=C2C(=O)c2ccccc2C1=O |  | > 100 | > 100 | > 100 | > 100 | > 100 | > 100 |  | > 100
12 | Cc1ccc(C(c2c(O)c3ccccc3n(-c3ccccc3)c2=O)c2c(O)c3ccccc3n(-c3ccccc3)c2=O)cc1 | > 100 | > 100 | > 100 | > 100 | > 100 | > 100 | > 100 | > 100 | 
13 | NC(=O)/C(=N\NC(=O)C[n+]1ccccc1)C1NC(=O)NC1=O (stereo not given) | > 100 | > 100 | > 100 | > 100 | > 100 | > 100 | > 100 | > 100 | > 100
14 | Cc1nc(N2N=C(c3ccc(Cl)cc3)CCC2=O)sc1[N+](=O)[O-] | > 100 | > 100 | > 100 | > 100 | > 100 | > 100 | > 100 | > 100 | 
15 | CCOC(=O)C(C(=O)OCC)c1ccc([N+](=O)[O-])o1 | 34.8 | 33.4 | 36.8 |  | 33.2 | 31 | 11.2 | 34.2 | 
